Test results from ChEMBL document CHEMBL1138436, “Biological activity and chemistry of taxoids from the Japanese yew, Taxus cuspidata” (J Nat Prod, 2004).
≈ marks a conversion by molar mass, not a printed value.

Experiments:
[1] = Growth inhibition of human HBC4 cells; assay type: functional; settings: for CC50: read-out: LC50 (the source's name)
MKN-28 = test: Growth inhibition of human MKN28 cells; assay type: functional
OVCAR-8 = test: Growth inhibition of human OVCAR8 cells; assay type: functional
MKN-74 = test: Growth inhibition of human MKN74 cells; assay type: functional
HCT-116 = test: Growth inhibition of human HCT116 cells; assay type: functional
SF-268 = test: Growth inhibition of human SF268 cells; assay type: functional
U-251 = test: Growth inhibition of human U251 cells; assay type: functional; settings: for CC50: read-out: LC50 (the source's name)
ACHN = test: Growth inhibition of human ACHN cells; assay type: functional; settings: for CC50: read-out: LC50 (the source's name)
SNB-75 = test: Growth inhibition of human SNB75 cells; assay type: functional
SF-539 = test: Growth inhibition of human SF539 cells; assay type: functional
DMS-273 = test: Growth inhibition of human DMS273 cells; assay type: functional; settings: for CC50: read-out: LC50 (the source's name)
KB = test: Cytotoxicity against human KB cells; assay type: functional, cell-based
[2] = read-out: LC50 (the source's name)
[3] = read-out: pLC50 (the source's name) (converted)

In the case of C=C1[C@@H](OC(=O)/C=C/c2ccccc2)C[C@H](OC(C)=O)[C@]2(C)[C@@H]1C[C@]1(C(C)(C)O)C[C@H](OC(C)=O)C(C)=C1[C@@H](OC(=O)c1ccccc1)[C@@H]2OC(C)=O [TAXUSPINE A], the GI50 ([1]; read-out: GI50) is reported as 100 µM, the CC50 [1] is reported as greater than 100 µM and the TGI ([1]; read-out: TGI) is reported as greater than 100 µM. For the same compound, the GI50 ([1]; read-out: pGI50 (converted)) was 72.4 µM, the TGI ([1]; read-out: pTGI (converted)) was 100 µM and the GI50 (MKN-28; read-out: GI50) was 12 µM. The CC50 (MKN-28; [2]) was greater than 100 µM, the TGI (MKN-28; read-out: TGI) was greater than 100 µM and the GI50 (MKN-28; read-out: pGI50 (converted)) was 11.7 µM. The CC50 (MKN-28; [3]) was 100 µM, the TGI (MKN-28; read-out: pTGI (converted)) was 100 µM and the GI50 (OVCAR-8; read-out: GI50) was 100 µM. It also gave a CC50 (OVCAR-8; [2]) greater than 100 µM, a TGI (OVCAR-8; read-out: TGI) greater than 100 µM and a GI50 (OVCAR-8; read-out: pGI50 (converted)) of 100 µM. The CC50 (OVCAR-8; [3]) was 100 µM, the TGI (OVCAR-8; read-out: pTGI (converted)) was 100 µM and the GI50 (MKN-74; read-out: GI50) was greater than 100 µM. It also gave a CC50 (MKN-74; [2]) greater than 100 µM, a GI50 (MKN-74; read-out: pGI50 (converted)) of 9.55 µM and a CC50 (MKN-74; [3]) of 100 µM. The TGI (MKN-74; read-out: pTGI (converted)) was 100 µM, the TGI (HCT-116) was greater than 100 µM and the GI50 (HCT-116; read-out: GI50) was 5.6 µM. It also gave a CC50 (HCT-116; [2]) greater than 100 µM, a GI50 (HCT-116; read-out: pGI50 (converted)) of 5.62 µM and a CC50 (HCT-116; [3]) of 100 µM. It also gave a TGI (SF-268) greater than 100 µM, a GI50 (SF-268; read-out: GI50) of 43 µM and a CC50 (SF-268; [2]) greater than 100 µM. It also gave a GI50 (SF-268; read-out: pGI50 (converted)) of 42.7 µM, a CC50 (SF-268; [3]) of 100 µM and a TGI (U-251) greater than 100 µM. For the same compound, the GI50 (U-251; read-out: GI50) was 71 µM, the CC50 (U-251) was greater than 100 µM and the GI50 (U-251; read-out: pGI50 (converted)) was 70.8 µM. For the same compound, the GI50 (ACHN; read-out: GI50) was 87 µM, the CC50 (ACHN) was greater than 100 µM and the TGI (ACHN; read-out: TGI) was greater than 100 µM. It also gave a GI50 (ACHN; read-out: pGI50 (converted)) of 87.1 µM, a TGI (ACHN; read-out: pTGI (converted)) of 100 µM and a GI50 (SNB-75; read-out: GI50) of 7.3 µM. It also gave a CC50 (SNB-75; [2]) greater than 100 µM, a TGI (SNB-75; read-out: TGI) of 68 µM and a GI50 (SNB-75; read-out: pGI50 (converted)) of 7.24 µM. It also gave a CC50 (SNB-75; [3]) of 100 µM, a TGI (SNB-75; read-out: pTGI (converted)) of 67.6 µM and a GI50 (SF-539; read-out: GI50) of 100 µM. It also gave a CC50 (SF-539; [2]) greater than 100 µM, a TGI (SF-539; read-out: TGI) greater than 100 µM and a GI50 (SF-539; read-out: pGI50 (converted)) of 100 µM. The CC50 (SF-539; [3]) was 100 µM, the TGI (SF-539; read-out: pTGI (converted)) was 100 µM and the GI50 (DMS-273; read-out: GI50) was 4.2 µM. It also gave a CC50 (DMS-273) greater than 100 µM, a TGI (DMS-273; read-out: TGI) greater than 100 µM and a GI50 (DMS-273; read-out: pGI50 (converted)) of 4.37 µM. The TGI (DMS-273; read-out: pTGI (converted)) was 100 µM.

Work on CC(=O)O[C@H]1C[C@H]2OC[C@@]2(OC(C)=O)[C@H]2[C@H](OC(=O)c3ccccc3)[C@]3(O)C[C@H](O)C(C)=C([C@@H](O)[C@H](O)[C@]12C)C3(C)C [TAXUSPINE E] yielded a GI50 ([1]; read-out: GI50) of 72 µM, a CC50 [1] greater than 100 µM and a TGI ([1]; read-out: TGI) greater than 100 µM. For the same compound, the GI50 ([1]; read-out: pGI50 (converted)) was 72.4 µM, the TGI ([1]; read-out: pTGI (converted)) was 100 µM and the GI50 (MKN-28; read-out: GI50) was 31 µM. For the same compound, the CC50 (MKN-28; [2]) was greater than 100 µM, the TGI (MKN-28; read-out: TGI) was greater than 100 µM and the GI50 (MKN-28; read-out: pGI50 (converted)) was 30.9 µM. It also gave a CC50 (MKN-28; [3]) of 100 µM, a TGI (MKN-28; read-out: pTGI (converted)) of 100 µM and a GI50 (OVCAR-8; read-out: GI50) of 37 µM. For the same compound, the CC50 (OVCAR-8; [2]) was greater than 100 µM, the TGI (OVCAR-8; read-out: TGI) was 100 µM and the GI50 (OVCAR-8; read-out: pGI50 (converted)) was 37.2 µM. The CC50 (OVCAR-8; [3]) was 100 µM, the TGI (OVCAR-8; read-out: pTGI (converted)) was 100 µM and the IC50 (KB) was 0.08 µg/mL (≈ 0.136 µM). For the same compound, the GI50 (MKN-74; read-out: GI50) was 30 µM, the CC50 (MKN-74; [2]) was greater than 100 µM and the TGI (MKN-74; read-out: TGI) was greater than 100 µM. It also gave a GI50 (MKN-74; read-out: pGI50 (converted)) of 30.2 µM, a CC50 (MKN-74; [3]) of 100 µM and a TGI (MKN-74; read-out: pTGI (converted)) of 100 µM. For the same compound, the TGI (HCT-116) was greater than 100 µM, the GI50 (HCT-116; read-out: GI50) was 30 µM and the CC50 (HCT-116; [2]) was greater than 100 µM. It also gave a GI50 (HCT-116; read-out: pGI50 (converted)) of 30.2 µM, a CC50 (HCT-116; [3]) of 100 µM and a TGI (SF-268) greater than 100 µM. It also gave a GI50 (SF-268; read-out: GI50) of 74 µM, a CC50 (SF-268; [2]) greater than 100 µM and a GI50 (SF-268; read-out: pGI50 (converted)) of 74.1 µM. For the same compound, the CC50 (SF-268; [3]) was 100 µM, the TGI (U-251) was greater than 100 µM and the GI50 (U-251; read-out: GI50) was 36 µM. For the same compound, the CC50 (U-251) was greater than 100 µM, the GI50 (U-251; read-out: pGI50 (converted)) was 36.3 µM and the GI50 (ACHN; read-out: GI50) was 28 µM. The CC50 (ACHN) was greater than 100 µM, the TGI (ACHN; read-out: TGI) was greater than 100 µM and the GI50 (ACHN; read-out: pGI50 (converted)) was 28.2 µM. It also gave a TGI (ACHN; read-out: pTGI (converted)) of 100 µM, a GI50 (SNB-75; read-out: GI50) of 9 µM and a CC50 (SNB-75; [2]) of 100 µM. It also gave a TGI (SNB-75; read-out: TGI) of 55 µM, a GI50 (SNB-75; read-out: pGI50 (converted)) of 8.91 µM and a CC50 (SNB-75; [3]) of 100 µM. It also gave a TGI (SNB-75; read-out: pTGI (converted)) of 55 µM, a GI50 (SF-539; read-out: GI50) of 45 µM and a CC50 (SF-539; [2]) greater than 100 µM. The TGI (SF-539; read-out: TGI) was greater than 100 µM, the GI50 (SF-539; read-out: pGI50 (converted)) was 44.7 µM and the CC50 (SF-539; [3]) was 100 µM. The TGI (SF-539; read-out: pTGI (converted)) was 100 µM, the GI50 (DMS-273; read-out: GI50) was 22 µM and the CC50 (DMS-273) was greater than 100 µM. It also gave a TGI (DMS-273; read-out: TGI) greater than 100 µM, a GI50 (DMS-273; read-out: pGI50 (converted)) of 22.4 µM and a TGI (DMS-273; read-out: pTGI (converted)) of 100 µM.
